This is an account of results in patent US12351570B2 (MERCK PATENT GMBH, priority 2018, dated 2025).

The term IC50 denotes the concentration needed to halve the response being measured.

Where a name gives a salt, the structure may show the parent alone.

The subject of one assay is MDA-MB-231 cells. The experiment in a line: Extracellular lactate production inhibition after 4 h, MDA-MB-231. The following applies: Homo sapiens, MDA-MB-231.
For the compound `COc1ccc(S(=O)(=O)Nc2cc(Cl)c(Cl)cc2C#Cc2ccc(C(=O)O)nc2)c2ncccc12` [Compound 190, 5-{2-[4,5-dichloro-2-(5-methoxyquinoline-8-sulfonamido)phenyl]ethynyl}pyridine-2-carboxylic acid], the IC50 was 0.01 to 0.1 µM.

The compound `COc1ccccc1-c1ccc(CN(C=O)c2ccccc2C#Cc2ccc(C(=O)O)nc2)cc1` [Compound 191, 5-(2-{2-[N-({2′-methoxy-[1,1′-biphenyl]-4-yl}methyl)formamido]phenyl}ethynyl)-pyridine-2-carboxylic acid] came in with an IC50 of 0.01 to 0.1 µM.

As for `COc1cc(C(=O)O)ncc1C#Cc1ccccc1N(C=O)Cc1ccc(-c2ccccc2)cc1` [Compound 192, 5-(2-{2-[N-({[1,1′-biphenyl]-4-yl}methyl)formamido]phenyl}ethynyl)-4-methoxypyridine-2-carboxylic acid], the IC50 fell in the range of 0.001 to 0.01 µM. The compound `Cc1ccc2cccnc2c1S(=O)(=O)Nc1ccccc1C#Cc1cnc(C(=O)O)cc1O` [Compound 193, 4-hydroxy-5-{2-[2-(7-methylquinoline-8-sulfonamido)phenyl]ethynyl}pyridine-2-carboxylic acid] registered an IC50 of 1 to 100 µM. In turn, `Cc1cc(C#Cc2ccccc2N(C=O)Cc2ccc(-c3ccccc3)cc2)cnc1C(=O)O` [Compound 194, 5-(2-{2-[N-({[1,1′-biphenyl]-4-yl}methyl)formamido]phenyl}ethynyl)-3-methylpyridine-2-carboxylic acid] gave an IC50 of 0.1 to 1 µM. In turn, `Cc1cc(C#Cc2ccccc2N(C=O)Cc2ccc3ccccc3c2)cnc1C(=O)O` [Compound 195, 3-methyl-5-[2-(2-{N-[(naphthalen-2-yl)methyl]formamido}phenyl)ethynyl]-pyridine-2-carboxylic acid] returned an IC50 of 0.1 to 1 µM.

In turn, `O=CN(Cc1cnc2ccccc2c1)c1ccccc1C#Cc1ccc(C(=O)O)nc1` [Compound 196, 5-[2-(2-{N-[(quinolin-3-yl)methyl]formamido}phenyl)ethynyl]-pyridine-2-carboxylic acid] gave an IC50 of 1 to 100 µM.

As for `COc1ccc(C#Cc2ccc(C(=O)O)nc2)c(NS(=O)(=O)c2ccc(OC)c3cccnc23)c1` [Compound 197, 5-{2-[4-methoxy-2-(5-methoxyquinoline-8-sulfonamido)phenyl]ethynyl}pyridine-2-carboxylic acid], the IC50 fell in the range of 0.1 to 1 µM. As to `Cn1c2ccccc2c2c(S(=O)(=O)Nc3ccccc3C#Cc3ccc(C(=O)O)nc3)cccc21` [Compound 198, 5-{2-[2-(9-methyl-9H-carbazole-4-sulfonamido)phenyl]ethynyl}pyridine-2-carboxylic acid], the IC50 lay within 0.1 to 1 µM. In turn, `COc1ccc(S(=O)(=O)Nc2cc(Cl)ccc2C#Cc2ccc(C(=O)O)nc2)c2ncccc12` [Compound 199, 5-{2-[4-chloro-2-(5-methoxyquinoline-8-sulfonamido)phenyl]ethynyl}pyridine-2-carboxylic acid] returned an IC50 of 0.01 to 0.1 µM. As to `O=CN(CCc1cccc2ccccc12)c1ccccc1C#Cc1ccc(C(=O)O)nc1` [Compound 200, 5-[2-(2-{N-[2-(naphthalen-1-yl)ethyl]-formamido}phenyl)ethynyl]pyridine-2-carboxylic acid], the IC50 was in the range of 0.1 to 1 µM. As for `COc1cc(CN(C=O)c2ccccc2C#Cc2ccc(C(=O)O)nc2)ccc1-c1ccccc1` [Compound 201, 5-(2-{2-[N-({2-methoxy-[1,1′-biphenyl]-4-yl}methyl)formamido]phenyl}-ethynyl)pyridine-2-carboxylic acid], the IC50 was 0.01 to 0.1 µM. Still for that read-out and setting: under `O=CN(Cc1ccccc1C#Cc1ccc(C(=O)O)nc1)c1ccc2ccccc2c1` [Compound 202, 5-[2-(2-{[N-(naphthalen-2-yl)formamido]methyl}phenyl)-ethynyl]pyridine-2-carboxylic acid] stands 0.01 to 0.1 µM; under `O=CN(Cc1cccc(Oc2ccccc2)c1)c1ccccc1C#Cc1ccc(C(=O)O)nc1` [Compound 203, 5-[2-(2-{N-[(3-phenoxyphenyl)methyl]-formamido}phenyl)ethynyl]pyridine-2-carboxylic acid], 0.1 to 1 µM; under `Cc1ccc2cccnc2c1S(=O)(=O)Nc1cc(Cl)c(Cl)cc1C#Cc1ccc(C(=O)O)nc1` [Compound 204, 5-{2-[4,5-dichloro-2-(7-methylquinoline-8-sulfonamido)phenyl]ethynyl}pyridine-2-carboxylic acid], 0.01 to 0.1 µM.

Turning to `CNc1cc(C#Cc2ccccc2NS(=O)(=O)c2c(C)ccc3cccnc23)cnc1C(=O)O` [Compound 206, 3-(methylamino)-5-{2-[2-(7-methylquinoline-8-sulfonamido)phenyl]-ethynyl}pyridine-2-carboxylic acid], the IC50 lay within 0.001 to 0.01 µM. Take `C=C(C)c1cc(C(=O)O)ncc1C#Cc1ccccc1NS(=O)(=O)c1ccc(OC)c2cccnc12` [Compound 207]: the IC50 was in the range of 0.01 to 0.1 µM. `COc1ccc(S(=O)(=O)Nc2ccccc2C#Cc2cnc(C(=O)O)c3ccccc23)c2ncccc12` [Compound 209, 4-{2-[2-(5-methoxyquinoline-8-sulfonamido)phenyl]ethynyl}isoquinoline-1-carboxylic acid]: the IC50 was in the range of 0.1 to 1 µM. As for `CCOc1ccc2cccnc2c1S(=O)(=O)Nc1ccccc1C#Cc1ccc(C(=O)O)nc1` [Compound 210, 5-{2-[2-(7-ethoxyquinoline-8-sulfonamido)phenyl]ethynyl}pyridine-2-carboxylic acid], the IC50 is 0.01 to 0.1 µM. The same measure, in the same setting: to `CC(C)Oc1ccc2cccnc2c1S(=O)(=O)Nc1ccccc1C#Cc1ccc(C(=O)O)nc1` [Compound 211, 5-(2-{2-[7-(propan-2-yloxy)quinoline-8-sulfonamido]phenyl}ethynyl)pyridine-2-carboxylic acid] belongs 0.01 to 0.1 µM. As for `CNc1cc(C#Cc2ccccc2NS(=O)(=O)c2ccc(OC)c3cccnc23)cnc1C(=O)O` [Compound 212, 5-{2-[2-(5-methoxyquinoline-8-sulfonamido)phenyl]ethynyl}-3-(methylamino)pyridine-2-carboxylic acid], the IC50 lay within 0.001 to 0.01 µM. `COc1cc(-c2ccccc2)ccc1CN(C=O)c1ccccc1C#Cc1ccc(C(=O)O)nc1` [Compound 213, 5-(2-{2-[N-({3-methoxy-[1,1′-biphenyl]-4-yl}methyl)formamido]phenyl}-ethynyl)pyridine-2-carboxylic acid] came in with an IC50 of 0.01 to 0.1 µM.

`COc1ccc(S(=O)(=O)Nc2ccc(I)cc2C#Cc2ccc(C(=O)O)nc2)c2ncccc12` [Compound 214, 5-{2-[5-iodo-2-(5-methoxyquinoline-8-sulfonamido)phenyl]ethynyl}pyridine-2-carboxylic acid] gave an IC50 of 0.001 to 0.01 µM.

`COc1cc(C(=O)O)ncc1C#Cc1ccccc1N(C=O)Cc1ccc(-c2ccccc2OC)cc1` [Compound 215, 4-methoxy-5-(2-{2-[N-({2′-methoxy-[1,1′-biphenyl]-4-yl}methyl)formamido]phenyl}-ethynyl)pyridine-2-carboxylic acid] displayed an IC50 of 0.001 to 0.01 µM. Still for that read-out and setting: to `COc1ccc(S(=O)(=O)Nc2ccccc2C#Cc2ccc(C(=O)NO)nc2)c2ncccc12` [Compound 216, N-hydroxy-5-{2-[2-(5-methoxyquinoline-8-sulfonamido)phenyl]ethynyl}pyridine-2-carboxamide] belongs 0.1 to 1 µM. Still for that read-out and setting: to `COc1ccc(C#Cc2ccc(C(=O)O)nc2)c(NS(=O)(=O)c2c(C)ccc3cccnc23)c1` [Compound 218, 5-{2-[4-methoxy-2-(7-methylquinoline-8-sulfonamido)phenyl]ethynyl}pyridine-2-carboxylic acid] belongs 0.1 to 1 µM. As for `COc1cc(C(=O)O)ncc1C#Cc1ccccc1NS(=O)(=O)N1CCC2CCCCC21` (centres unmarked) [Compound 219, 4-methoxy-5-(2-{2-[(octahydro-1H-indole-1-sulfonyl)amino]phenyl}ethynyl)pyridine-2-carboxylic acid], the IC50 lay in the range of 0.1 to 1 µM. `O=CN(Cc1ccc(-c2ccccc2)nc1)c1ccccc1C#Cc1ccc(C(=O)O)nc1` [Compound 220, 5-[2-(2-{N-[(6-phenylpyridin-3-yl)methyl]formamido}phenyl)-ethynyl]pyridine-2-carboxylic acid] had an IC50 of 0.1 to 1 µM. Regarding `COc1cc(C(=O)O)ncc1C#Cc1ccccc1NS(=O)(=O)N1CCC[C@@H]2CCCC[C@H]21` [Compound 221, 5-[2-(2-{[(4a,8a-trans)-decahydro-quinoline-1-sulfonyl]amino}phenyl)-ethynyl]-4-methoxypyridine-2-carboxylic acid], the IC50 was in the range of 0.001 to 0.01 µM. In turn, `COc1cc(C(=O)O)ncc1C#Cc1ccccc1NS(=O)(=O)N1CCC(C)C2CCCCC21` (centres unmarked) [Compound 222, 4-methoxy-5-[2-(2-{[(4-methyl-deca-hydroquinolin-1-yl)sulfonyl]amino}-phenyl)ethynyl]pyridine-2-carboxylic acid] had a concentration for half-maximal inhibition (IC50) of 0.01 to 0.1 µM. Same read-out and setting: to `COc1cc(C(=O)N(C)C)ncc1C#Cc1ccccc1NS(=O)(=O)c1ccc(OC)c2cccnc12` [Compound 223, 4-methoxy-5-{2-[2-(5-methoxyquinoline-8-sulfonamido)phenyl]ethynyl}-N,N-dimethylpyridine-2-carboxamide] belongs 1 to 100 µM. For `COc1cc(C(=O)NO)ncc1C#Cc1ccccc1NS(=O)(=O)c1ccc(OC)c2cccnc12` [Compound 224, N-hydroxy-4-methoxy-5-{2-[2-(5-methoxyquinoline-8-sulfonamido)phenyl-]ethynyl}pyridine-2-carboxamide], the IC50 was 0.1 to 1 µM. `Cc1cc(C#Cc2ccccc2NS(=O)(=O)N2CCC[C@@H]3CCCC[C@H]32)cnc1C(=O)O` [Compound 225, 5-[2-(2-{[(4a,8a-trans)-decahydro-quinoline-1-sulfonyl]amino}phenyl)-ethynyl]-3-methylpyridine-2-carboxylic acid] came in with an IC50 of 0.01 to 0.1 µM. On the same count and under the same terms, to `Cc1ccc2cccnc2c1S(=O)(=O)Nc1ccccc1C#Cc1cnc(C(=O)O)cc1-c1ccccc1` [Compound 226, 5-{2-[2-(7-methylquinoline-8-sulfonamido)phenyl]ethynyl}-4-phenylpyridine-2-carboxylic acid] belongs 0.01 to 0.1 µM.

Still in this assay, the particulars now being: Table 3; group class A-D; the table does not say which assay or cell line ("the assays described above").
`O=CN(Cc1ccc2ncccc2c1)c1ccccc1C#Cc1ccc(C(=O)O)nc1` [Compound 205, trifluoroacetate] yielded an IC50 of 1 to 100 µM.
